Laboratory results taken from US11371020B2, “Uses of epithelial-to-mesenchymal inhibitors in generating pacemaker cells” (Emory University, priority 2016, dated 2022).
“Also recorded” adds a separate entry of the source.

How the values were obtained:
[1] = biological target: T1, ALK-5 (Homo sapiens, UniProt P36897); settings: cited from earlier work
T1 sequence (P36897 34-503): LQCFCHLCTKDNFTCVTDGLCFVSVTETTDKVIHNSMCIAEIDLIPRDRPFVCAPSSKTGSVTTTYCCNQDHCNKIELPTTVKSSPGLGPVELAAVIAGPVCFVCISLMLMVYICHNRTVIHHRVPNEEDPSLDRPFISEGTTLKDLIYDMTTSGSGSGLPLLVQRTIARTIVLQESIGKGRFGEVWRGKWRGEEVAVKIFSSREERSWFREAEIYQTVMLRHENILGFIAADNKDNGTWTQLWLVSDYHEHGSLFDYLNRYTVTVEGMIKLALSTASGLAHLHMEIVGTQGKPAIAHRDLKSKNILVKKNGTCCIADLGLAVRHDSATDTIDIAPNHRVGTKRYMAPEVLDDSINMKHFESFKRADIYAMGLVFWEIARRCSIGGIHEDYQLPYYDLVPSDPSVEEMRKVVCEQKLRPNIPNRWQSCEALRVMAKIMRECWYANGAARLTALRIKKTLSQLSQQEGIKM

[2] = test system: TBX18-induced pacemaker cells (TBX18-iPCs); experiment: Beating, field potential and Ca2+ transient recording of TBX18-iPCs; type: cell-based, rat
Procedure: (§1) Experiments were performed to test whether i) TBX18-induced pacemaker cells (TBX18-iPCs) migrate, and ii) inhibition of EMT in TBX18-iPCs may stop the migration, thereby enhancing its pacing function. (See FIGS. 1-8). TBX18-iPCs were created by transducing freshly-isolated neonatal rat ventricular myocytes (NRVM) with an adenoviral vector expressing human TBX18. TBX18-iPC were cultured with an inhibitor of EMT, A83-01. […] TBX18-iPCs beat in synchrony upon EMT inhibition, and their automaticity persists over long-term.

[3] = test system: TBX18-iPCs; experiment: Cx43 localisation, gap junctional coupling and Hcn4 expression in TBX18-iPCs; type: cell-based, rat
Procedure: as §1
TBX18 mediates both automaticity and EMT in iPCs.

[4] = test system: EMT genes; experiment: EMT-related gene expression in TBX18-induced pacemaker cells; type: cell-based, rat; settings: TBX18-iPCs cultured with A83-01
Procedure: as §1

[5] = test system: TBX18-induced pacemaker cells (TBX18-iPCs); experiment: Electrode-to-electrode impedance measurement of migration of TBX18-iPCs; type: cell-based, rat; settings: A83-01 0.5 microM; NRVM transduced with adenoviral human TBX18
Procedure: TBX18-iPCs were created by transducing freshly isolated neonatal rat ventricular myocytes (NRVM) with an adenoviral vector expressing human TBX18. TBX18-iPC were cultured with an inhibitor of EMT, A83-01 (0.5 microM).
as §1

SMILES: Cc1cccc(-c2nn(C(=S)Nc3ccccc3)cc2-c2ccnc3ccccc23)n1 [A83-01, 3-(6-methyl-2-pyridinyl)-N-phenyl-4-(4-quinolinyl)-1H-pyrazole-1-carbothioamide]
- Smad signaling and epithelial-to-mesenchymal transition by transforming growth factor-beta [1]: inhibits
- persistence of automaticity of iPMs ([2]; in A83-01 versus without it): persists much longer
- synchrony of pacing ([2]; in the presence of A83-01): synchronous and rhythmic pacing; also recorded: pace in unity
- beating rate of TBX18-iPCs ([2]; upon EMT inhibition): beating rate increases
- contraction and relaxation speed of TBX18-iPCs ([2]; upon EMT inhibition): contract and relax faster
- gap junctional coupling of EMT-inhibited TBX18-iPCs [3]: long-term gap junctional coupling
- Hcn4 expression in TBX18-iPCs ([3]; upon EMT inhibition): enhances Hcn4 expression
- localisation of nuclear-bound Cx43 proteins in TBX18-iPCs ([3]; upon EMT inhibition): translocated to the sarcolemma
- EMT gene expression in the iPCs [4]: down-regulates EMT genes
- migration of TBX18-iPCs [5]: remain stationary; also recorded: migratory behavior is deleted
